pEC50, pIC50: −log10 of the molar value. Read-outs that look alike come from different tables or passages of the source.
Assays:
hClpP = target: T1, hClpP (Homo sapiens, UniProt Q16740); assay: activating ClpP hydrolysis of FITC-casein (fluorescence kinetic detection); type: biochemical; settings: hClpP 1 μM, FITC-Casein 4 μM, 37° C.
T1 construct: made in house
Method: The specific procedures were as follows:
Test compounds were each prepared into a 100 mM stock solution in DMSO and stored. and 1 μL of stock solution of each of the compounds was taken and diluted to 10 mM by adding 9 μL of DMSO for later use.
The compounds of formula I of the present invention were each diluted at concentrations of 200 μM, 50 μM, 10 μM, 2 μM, 500 nM, 100 nM, 20 nM, and 2 nM in an assay buffer. 50 μL of each of the compounds at different concentrations was added to each well, with 2 replicate wells.
The protein was diluted to 4 μM in an assay buffer. 25 μL of protein was added to each well, and incubated at 37° C. for 30 min. The final concentration was 1 μM.
25 μL of FITC-Casein was added to each well. The final concentration was 4 μM. The mixture was immediately loaded on the machine for detection.
FITC-Casein and FITC-Casein+ClpP were used as negative controls.
The detection temperature was 37° C. The plate was shaken for 3 s. […] Kinetic parameters were set, and scanning was performed once every 1 min for 15 min.

MV4; 11 cells = assay: inhibiting the growth of MV4; 11 cells; type: cell-based

T1 sequence (Q16740 57-277): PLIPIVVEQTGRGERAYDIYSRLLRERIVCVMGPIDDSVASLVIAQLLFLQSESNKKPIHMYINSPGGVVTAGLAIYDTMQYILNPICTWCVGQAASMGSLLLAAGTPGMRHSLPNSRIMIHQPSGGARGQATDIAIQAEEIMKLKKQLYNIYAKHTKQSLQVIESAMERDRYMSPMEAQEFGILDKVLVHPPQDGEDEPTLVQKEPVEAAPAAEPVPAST

| Compound | pEC50 (hClpP) | pIC50 (MV4; 11 cells; Homo sapiens) | pIC50 (MV4; 11 cells) |
| --- | --- | --- | --- |
| Cn1ccc(Cn2c(=O)c3c(c4cccnc42)CCN(Cc2ccccc2)C3)n1 [Compound I-58, 3-benzyl-6-((1-methyl-1H-pyrazol-3-yl)methyl)-2,3,4,6-tetrahydropyrido[3,4-c][1,8]naphthyridine-5-(1H)-one] | 4.00 to 5.00 | 5.00 to 6.00 | – |
| Cc1cc(Cn2c(=O)c3c(c4cccnc42)CCN(Cc2ccccc2)C3)n(C)n1 [Compound I-60, 3-benzyl-6-((1,3-dimethyl-1H-pyrazol-5-yl)methyl)-2,3,4,6-tetrahydropyrido[3,4-c][1,8]naphthyridine-5-(1H)-one] | 4.00 to 5.00 | 5.00 to 6.00 | – |
| O=c1c2c(c3cccnc3n1Cc1ccccn1)CCN(Cc1ccccc1)C2 [Compound I-61, 3-benzyl-6-(pyridin-2-ylmethyl)-2,3,4,6-tetrahydropyrido[3,4-c][1,8]naphthyridine-5-(1H)-one] | 4.00 to 5.00 | 5.00 to 6.00 | – |
| O=c1c2c(c3cccnc3n1Cc1cccnc1)CCN(Cc1ccccc1)C2 [Compound I-62, 3-benzyl-6-(pyridin-3-ylmethyl)-2,3,4,6-tetrahydropyrido[3,4-c][1,8]naphthyridine-5-(1H)-one] | 4.00 to 5.00 | 5.00 to 6.00 | – |
| O=c1c2c(c3cccnc3n1Cc1ccncc1)CCN(Cc1ccccc1)C2 [Compound I-63, 3-benzyl-6-(pyridin-4-ylmethyl)-2,3,4,6-tetrahydropyrido[3,4-c][1,8]naphthyridine-5-(1H)-one] | 4.00 to 5.00 | 5.00 to 6.00 | – |
| Cn1cnc(Cn2c(=O)c3c(c4cccnc42)CCN(Cc2ccccc2)C3)c1 [Compound I-66, 3-benzyl-6-((1-methyl-1H-imidazol-4-yl)methyl)-2,3,4,6-tetrahydropyrido[3,4-c][1,8]naphthyridine-5-(1H)-one] | 4.00 to 5.00 | 5.00 to 6.00 | – |
| O=c1c2c(c3cccnc3n1Cc1ccc(C(F)(F)F)cc1)CCN(Cc1ccccc1)C2 [Compound I-70, 3-benzyl-6-(4-(trifluoromethyl)benzyl)-2,3,4,6-tetrahydropyrido[3,4-c][1,8]naphthyridine-5-(1H)-one] | > 6.00 | > 6.00 | – |
| O=c1c2c(c3cccnc3n1Cc1ccc(F)cc1)CCN(Cc1cccc(F)c1)C2 [Compound I-71, 3-(3-fluorobenzyl)-6-(4-fluorobenzyl)-2,3,4,6-tetrahydropyrido[3,4-c][1,8]naphthyridine-5-(1H)-one] | > 6.00 | > 6.00 | – |
| O=c1c2c(c3cccnc3n1Cc1ccc(Cl)cc1)CCN(Cc1cccc(F)c1)C2 [Compound I-74, 3-(3-fluorobenzyl)-6-(4-chlorobenzyl)-2,3,4,6-tetrahydropyrido[3,4-c][1,8]naphthyridine-5-(1H)-one] | > 6.00 | > 6.00 | – |
| O=c1c2c(c3cccnc3n1Cc1ccc(Br)cc1)CCN(Cc1cccc(F)c1)C2 [Compound I-77, 3-(3-fluorobenzyl)-6-(4-bromobenzyl)-2,3,4,6-tetrahydropyrido[3,4-c][1,8]naphthyridine-5-(1H)-one] | > 6.00 | > 6.00 | – |
| O=c1c2c(c3ccccc3n1Cc1ccc(C(F)(F)F)cc1)CCN(Cc1ccccc1)C2 [Compound I-80, 3-benzyl-6-(4-(trifluoromethyl)benzyl)-2,3,4,6-tetrahydrobenzo[c][2,7]naphthyridine-5-(1H)-one] | > 6.00 | > 6.00 | – |
| O=c1c2c(c3cncnc3n1Cc1ccc(C(F)(F)F)cc1)CCN(Cc1ccccc1)C2 [Compound I-81, 8-benzyl-5-(4-(trifluoromethyl)benzyl)-7,8,9,10-tetrahydropyrimidinyl[4,5-c][2,7]naphthyridine-6-(5H)-one] | > 6.00 | > 6.00 | – |
| N#Cc1cccc(CN2CCc3c(c(=O)n(Cc4ccccc4)c4ncccc34)C2)c1 [Compound I-82, 6-benzyl-3-(3-cyanobenzyl)-2,3,4,6-tetrahydropyrido[3,4-c][1,8]naphthyridine-5-(1H)-one] | > 6.00 | > 6.00 | – |
| N#Cc1cccc(CN2CCc3c(c(=O)n(Cc4ccc(Cl)cc4)c4ncccc34)C2)c1 [Compound I-85, 6-(4-chlorobenzyl)-3-(3-cyanobenzyl)-2,3,4,6-tetrahydropyrido[3,4-c][1,8]naphthyridine-5-(1H)-one] | > 6.00 | > 6.00 | – |
| N#Cc1cccc(CN2CCc3c(c(=O)n(Cc4ccc(Br)cc4)c4ncccc34)C2)c1 [Compound I-86, 6-(4-bromobenzyl)-3-(3-cyanobenzyl)-2,3,4,6-tetrahydropyrido[3,4-c][1,8]naphthyridine-5-(1H)-one] | > 6.00 | > 6.00 | – |

Now from value to compound:

| pEC50 (hClpP) | pIC50 (MV4; 11 cells; Homo sapiens) | pIC50 (MV4; 11 cells) | Compound |
| --- | --- | --- | --- |
| 4.00 to 5.00 | 5.00 to 6.00 | – | Cn1nccc1Cn1c(=O)c2c(c3cccnc31)CCN(Cc1ccccc1)C2 [Compound I-59, 3-benzyl-6-((1-methyl-1H-pyrazol-5-yl)methyl)-2,3,4,6-tetrahydropyrido[3,4-c][1,8]naphthyridine-5-(1H)-one] |
| 4.00 to 5.00 | – | 5.00 to 6.00 | O=c1c2c(c3cccnc3n1Cc1cc(Cl)ccn1)CCN(Cc1ccccc1)C2 [Compound I-64, 3-benzyl-6-((4-chloropyridin-2-yl)methyl)-2,3,4,6-tetrahydropyrido[3,4-c][1,8]naphthyridine-5-(1H)-one] |
| 4.00 to 5.00 | 5.00 to 6.00 | – | Cn1ccnc1Cn1c(=O)c2c(c3cccnc31)CCN(Cc1ccccc1)C2 [Compound I-65, 3-benzyl-6-((1-methyl-1H-imidazol-2-yl)methyl)-2,3,4,6-tetrahydropyrido[3,4-c][1,8]naphthyridine-5-(1H)-one] |
| 4.00 to 5.00 | 5.00 to 6.00 | – | Cn1cncc1Cn1c(=O)c2c(c3cccnc31)CCN(Cc1ccccc1)C2 [Compound I-67, 3-benzyl-6-((1-methyl-1H-imidazol-5-yl)methyl)-2,3,4,6-tetrahydropyrido[3,4-c][1,8]naphthyridine-5-(1H)-one] |
| 4.00 to 5.00 | 5.00 to 6.00 | – | Cc1noc(C)c1Cn1c(=O)c2c(c3cccnc31)CCN(Cc1ccccc1)C2 [Compound I-68, 3-benzyl-6-((3,5-dimethylisoxazol-4-yl)methyl)-2,3,4,6-tetrahydropyrido[3,4-c][1,8]naphthyridine-5-(1H)-one] |
| 4.00 to 5.00 | 5.00 to 6.00 | – | Cc1ncc(Cn2c(=O)c3c(c4cccnc42)CCN(Cc2ccccc2)C3)s1 [Compound I-69, 3-benzyl-6-((2-methylthiazol-5-yl)methyl)-2,3,4,6-tetrahydropyrido[3,4-c][1,8]naphthyridine-5-(1H)-one] |
| > 6.00 | > 6.00 | – | O=c1c2c(c3cccnc3n1Cc1ccc(F)cc1)CCN(Cc1cccc(Cl)c1)C2 [Compound I-72, 3-(3-chlorobenzyl)-6-(4-fluorobenzyl)-2,3,4,6-tetrahydropyrido[3,4-c][1,8]naphthyridine-5-(1H)-one] |
| > 6.00 | > 6.00 | – | O=c1c2c(c3cccnc3n1Cc1ccc(F)cc1)CCN(Cc1cccc(Br)c1)C2 [Compound I-73, 3-(3-bromobenzyl)-6-(4-fluorobenzyl)-2,3,4,6-tetrahydropyrido[3,4-c][1,8]naphthyridine-5-(1H)-one] |
| > 6.00 | > 6.00 | – | O=c1c2c(c3cccnc3n1Cc1ccc(Cl)cc1)CCN(Cc1cccc(Cl)c1)C2 [Compound I-75, 3-(3-chlorobenzyl)-6-(4-chlorobenzyl)-2,3,4,6-tetrahydropyrido[3,4-c][1,8]naphthyridine-5-(1H)-one] |
| > 6.00 | > 6.00 | – | O=c1c2c(c3cccnc3n1Cc1ccc(Cl)cc1)CCN(Cc1cccc(Br)c1)C2 [Compound I-76, 3-(3-bromobenzyl)-6-(4-chlorobenzyl)-2,3,4,6-tetrahydropyrido[3,4-c][1,8]naphthyridine-5-(1H)-one] |
| > 6.00 | > 6.00 | – | O=c1c2c(c3cccnc3n1Cc1ccc(Br)cc1)CCN(Cc1cccc(Cl)c1)C2 [Compound I-78, 3-(3-chlorobenzyl)-6-(4-bromobenzyl)-2,3,4,6-tetrahydropyrido[3,4-c][1,8]naphthyridine-5-(1H)-one] |
| > 6.00 | > 6.00 | – | O=c1c2c(c3cccnc3n1Cc1ccc(Br)cc1)CCN(Cc1cccc(Br)c1)C2 [Compound I-79, 3-(3-bromobenzyl)-6-(4-bromobenzyl)-2,3,4,6-tetrahydropyrido[3,4-c][1,8]naphthyridine-5-(1H)-one] |
| > 6.00 | > 6.00 | – | N#Cc1cccc(CN2CCc3c(c(=O)n(Cc4ccc(C(F)(F)F)cc4)c4ncccc34)C2)c1 [Compound I-83, 6-(4-trifluoromethylbenzyl)-3-(3-cyanobenzyl)-2,3,4,6-tetrahydropyrido[3,4-c][1,8]naphthyridine-5-(1H)-one] |
| > 6.00 | > 6.00 | – | N#Cc1cccc(CN2CCc3c(c(=O)n(Cc4ccc(F)cc4)c4ncccc34)C2)c1 [Compound I-84, 6-(4-fluorobenzyl)-3-(3-cyanobenzyl)-2,3,4,6-tetrahydropyrido[3,4-c][1,8]naphthyridine-5-(1H)-one] |
| > 6.00 | > 6.00 | – | COc1ccc(Cn2c(=O)c3c(c4cccnc42)CCN(Cc2cccc(C#N)c2)C3)cc1 [Compound I-87, 6-(4-methoxybenzyl)-3-(3-cyanobenzyl)-2,3,4,6-tetrahydropyrido[3,4-c][1,8]naphthyridine-5-(1H)-one] |
| 5.00 to 6.00 | 5.00 to 6.00 | – | N#Cc1cccc(CN2CCc3c(c(=O)n(Cc4ccc([N+](=O)[O-])cc4)c4ncccc34)C2)c1 [Compound I-88, 6-(4-nitrobenzyl)-3-(3-cyanobenzyl)-2,3,4,6-tetrahydropyrido[3,4-c][1,8]naphthyridine-5-(1H)-one] |

— patent US20240327408A1, “COMPOUNDS CONTAINING TETRAHYDRONAPHTHYRIDINONE OR TETRAHYDROPYRIDOPYRIMIDINONE SKELETON, PREPARATION METHOD THEREFOR AND PHARMACEUTICAL USE THEREOF” (CHINA PHARMACEUTICAL UNIVERSITY, priority 2021, published 2024)
